Test results from patent US10017535B2, “Amphiphilic compounds with neuroprotective properties” (USTAV ORGANICKE CHEMIE A BIOCHEMIE AV CR, v.v.i., priority 2014, dated 2018).
Where a name gives a salt, the structure may show the parent alone. Read-outs that look alike come from different tables or passages of the source.

Tests used:
[1] = biological target: T1, NR1-1a/NR2B NMDA receptor (Rattus norvegicus, UniProt P35439+Q00960); experiment: Patch-clamp inhibition of glutamate-evoked currents at recombinant NMDA receptors in transfected HEK293 cells; format: cell-based; details: for Mean % change ± SD: 1 mmol·l^−1 glutamate, −60 mV
T1 construct: expressed in transfected cells; host or cells: HEK293 cells (ATCC CRL1573)
T1 sequence (Q00960 27-1482, other chains not shown): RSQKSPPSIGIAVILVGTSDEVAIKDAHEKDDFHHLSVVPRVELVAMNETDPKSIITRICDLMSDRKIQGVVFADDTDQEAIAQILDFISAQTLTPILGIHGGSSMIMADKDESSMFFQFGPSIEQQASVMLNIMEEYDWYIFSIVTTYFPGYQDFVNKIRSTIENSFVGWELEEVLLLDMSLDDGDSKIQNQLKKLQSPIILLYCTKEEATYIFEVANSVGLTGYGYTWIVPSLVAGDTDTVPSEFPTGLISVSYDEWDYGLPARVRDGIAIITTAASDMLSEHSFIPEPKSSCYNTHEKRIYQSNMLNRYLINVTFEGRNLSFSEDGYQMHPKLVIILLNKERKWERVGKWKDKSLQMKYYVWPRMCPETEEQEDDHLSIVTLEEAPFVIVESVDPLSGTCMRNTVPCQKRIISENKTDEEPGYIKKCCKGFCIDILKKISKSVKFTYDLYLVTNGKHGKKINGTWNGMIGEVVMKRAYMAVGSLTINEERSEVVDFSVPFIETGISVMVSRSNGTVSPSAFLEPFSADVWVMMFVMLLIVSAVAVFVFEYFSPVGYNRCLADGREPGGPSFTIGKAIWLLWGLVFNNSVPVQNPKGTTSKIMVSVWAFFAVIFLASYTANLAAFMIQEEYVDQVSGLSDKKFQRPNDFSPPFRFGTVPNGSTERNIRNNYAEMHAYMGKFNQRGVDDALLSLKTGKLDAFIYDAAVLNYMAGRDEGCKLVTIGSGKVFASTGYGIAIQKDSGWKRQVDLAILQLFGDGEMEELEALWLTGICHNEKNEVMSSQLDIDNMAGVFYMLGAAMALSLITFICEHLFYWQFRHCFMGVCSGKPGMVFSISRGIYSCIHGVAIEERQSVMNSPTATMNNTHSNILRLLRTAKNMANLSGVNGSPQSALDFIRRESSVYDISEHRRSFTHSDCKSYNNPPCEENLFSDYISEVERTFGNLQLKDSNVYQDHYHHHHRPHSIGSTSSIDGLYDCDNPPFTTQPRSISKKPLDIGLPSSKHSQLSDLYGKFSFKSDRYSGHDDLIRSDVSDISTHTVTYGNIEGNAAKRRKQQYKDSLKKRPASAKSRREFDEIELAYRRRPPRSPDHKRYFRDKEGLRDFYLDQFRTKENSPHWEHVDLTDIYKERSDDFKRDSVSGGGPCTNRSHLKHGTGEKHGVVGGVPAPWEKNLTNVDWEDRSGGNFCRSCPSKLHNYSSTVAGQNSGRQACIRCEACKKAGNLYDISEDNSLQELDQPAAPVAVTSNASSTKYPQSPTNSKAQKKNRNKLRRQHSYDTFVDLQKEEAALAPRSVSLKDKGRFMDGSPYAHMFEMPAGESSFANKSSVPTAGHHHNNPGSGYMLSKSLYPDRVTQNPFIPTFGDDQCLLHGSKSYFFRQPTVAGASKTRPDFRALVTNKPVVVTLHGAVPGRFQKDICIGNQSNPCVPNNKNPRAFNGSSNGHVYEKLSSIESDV
Experimental: Transfected cells were identified by means of fluorescent green protein (GFP) fluorescence. Its genus was transfected together with the both receptor subunit genes.
Steroid-containing solutions were prepared from fresh solution (20 mmol·l^−1, of steroid dissolved in dimethyl sulfoxide, DMSO), which was added to the extracellular solution containing 1 mmol·l^−1 glutamic acid and 10 μmol·l^−1 of glycine. Identical concentrations of DMSO were added to all other extracellular solutions.
Current responses produced by extracellular application of glutamic acid solution (1 mmol·l^−1) were measured from the whole cell by patch-clamp technique, which is used for the study of transport of charged particles through model and also natural biological membranes. The currents were measured at membrane potential maintained at −60 mV and +60 mV.
Same amounts (0.3 μg) of cDNA coding NR1, NR2 and GFP (green fluorescent protein) (pQBI 25, Takara, Japan) were mixed with 0.9 μl of Matra-A Reagent (IBA, Göttingen, Germany) and added to confluent HEK293 cells cultivated in v 24-pit cultivating plate. After trypsination, the cells were re-suspended in Opti-MEM® I containing 1% fetal bovine serum. Subsequently, 20 mmol·l^−1 MgCl2, 1 mmol l^−1 D,L-2-amino-5-phosphonopentanoic acid, 3 mmol·l^−1 kynurenic acid was added to the mixture and cells were inoculated on the polylysine-coated glass plates having 25 mm in diameter. The following genes coding NMDA receptor subunits were used for transfection: NR1-1 a (GenBank accession No. U08261) and NR2B (GenBank accession No. M91562).
HEK293 Cultured cells were used for electrophysiological investigations with a latency of 16-40 h after transfection. Whole-cell currents were measured by patch-clamp amplifier (Axopatch 1D; Axon Instruments, Inc. Foster City, USA) after capacitance and serial resistance (<10 MΩ) compensation to 80-90%. Agonist-induced responses were filtered to 1 kHz (8-pole Bessel filter; Frequency Devices, Haverhill, USA), digitized with sampling frequency of 5 kHz and analyzed by pClamp version 9 software (Axon Instruments, USA). […] Extracellular solution (ECS) contained 160 mmol·l^−1 sodium chloride, 2.5 mmol·l^−1 potassium chloride, 10 mmol·l^−1 HEPES, 10 mmol·l^−1 glucose, 0.2 mmol·l^−1 EDTA a 0.7 mmol·l^−1 calcium chloride (pH adjusted to 7.3 by sodium hydroxide solution). Glycine was added to both testing and control solution. Moreover, bicuculline (10 μmol·l^−1) and tetrodotoxin (0.5 μmol·l^−1) was added to hippocampal cultures. Steroid-containing solutions were prepared from fresh solution (20 mmol·l^−1) of steroid dissolved in dimethyl sulfoxide (DMSO). Same concentrations of DMSO were used in all extracellular solutions. Control and experimental solutions were applied via microprocessor-controlled perfusion system with approx. rate of solution exchange in areas adjacent to cells reaching ˜10 ms.
Current responses produced by 100 μmol·l^−1 of NMDA (in the case of hipocampal neurones), or by 1 mmol·l^−1 of glutamate (on recombinant NMDA receptors) were measured at membrane potential maintained at −60 mV. […] Relative effect of steroid-induced inhibition was used for calculating IC50.

[2] = test system: laboratory mice, strain CD-1; experiment: Open field test (locomotor activity, sedative effect); format: in vivo; details: for overall pathway in open field: 0.3 mg/kg, 50 minutes
Experimental: In the Experimental Part 1 were used adults (30-35 g) male laboratory mice, strain CD-1 from Velaz facility, Czech Republic. Mice were housed in plastic boxes with a 12-hour light cycle (lights on at 7:00 pm). Mice had free access to food and water.
Amphiphilic steroid compounds were dissolved in a solution of 3 g (2-hydroxypropyl)-β-cyclodextrin (CDX, Sigma-Aldrich) and 157 mg of citric acid ([…], Sigma-Aldrich) in 30 ml of distilled water, the pH was adjusted to 7.4 using sodium hydroxide (NaOH, Sigma-Aldrich). Thus there were prepared solutions of the four steroids for application rates of 0.1, 1, 10 and 100 mg/kg.
The efficacy of the studied compounds was compared to known NMDA antagonist is memantine (Sigma-Aldrich) at a dose of 5 mg/kg in rats, ketamine (Vétoquinol) at 10 mg/kg and dizocilpine (MK-801) (Sigma-Aldrich) at a dose of 0.3 mg/kg in mice. These three compounds were dissolved in saline (B Braun).
The substances at dose 0.1-100 mg/kg were administered before the test to mice intraperitoneally. As controls were used intact mice and mice that received CDX solution. Also, MK-801 (0.3 mg/kg) was used for comparison of effects of noncompetitive antagonist of NMDA receptors. From the experiment was evaluated overall track anywhere in the arena as an indicator of locomotor activity. In addition, it was judged a ten-minute segments track during each experiment. Based on these values, it was possible to determine the latency time of onset of action and changes in locomotor activity over time.
In this arrangement, the sedative effect of the studied compounds at the highest dose was evaluated. […] Over time was monitored locomotor activity and possible changes characterized by tremor, ataxia, restlessness, or sedation or general anesthesia (absence of response to stimuli, decreased muscle tone).

[3] = calculated from relative steroid-induced inhibition, Hill's coefficient 1.2, read-out: IC50
[4] = steroid concentration 10 μmol·l^−1
[5] = steroid concentration 3 μmol·l^−1

Compound	melting point [°C]	IC50 [1, 3] [µM]	also measured
C=C1C[C@H]2[C@@H]3CC[C@@H]4C[C@H](OC(=O)CCC(=O)O)CC[C@]4(C)[C@H]3CC[C@]2(C)C1	165 to 165.7		
C[C@@]12CCC[C@H]1[C@@H]1CC[C@@H]3C[C@H](OC(=O)[C@@H](N)CCCNC(=N)N)CC[C@]3(C)[C@H]1CC2.Cl.Cl	238 to 240		
C=C1CC[C@H]2[C@@H]3CC[C@@H]4C[C@H](OC(=O)CCCCC(=O)O)CC[C@]4(C)[C@H]3CC[C@]12C	100 to 102		
C[C@H]1CC[C@H]2[C@@H]3CC[C@@H]4C[C@H](OC(=O)CC(=O)O)CC[C@]4(C)[C@H]3CC[C@]12C	158 to 161.2		
C[C@H]1CC[C@H]2[C@@H]3CC[C@@H]4C[C@H](OC(=O)CCC(=O)O)CC[C@]4(C)[C@H]3CC[C@]12C	141 to 142		
C=C(C)[C@H]1CC[C@H]2[C@@H]3CC[C@@H]4C[C@H](OC(=O)CCC(=O)O)CC[C@]4(C)[C@H]3CC[C@]12C	148 to 149.5		
C[C@@]12CCC[C@H]1[C@@H]1CC[C@@H]3C[C@H](OC(=O)CCC[N+](C)(C)C)CC[C@]3(C)[C@H]1CC2 (as salt: chloride) [Compound 62, 4-(((3R,5R,8S,9S,10S,13S,14S)-10,13-Dimethylhexadecahydro-1H-cyclopenta[a]-phenanthren-3-yl)oxy)-N,N,N-trimethyl-4-oxobutan-1-ammonium chloride]	225 to 227		
C=C1CC[C@H]2[C@@H]3CC[C@@H]4C[C@H](OC(=O)C[N+](C)(C)C)CC[C@]4(C)[C@H]3CC[C@]12C (as salt: chloride) [Compound 76, 2-(((3R,5R,8R,9S,10S,13S,14S)-10,13-Dimethyl-17-methylenehexadecahydro-1H-cyclopenta[a]phenanthren-3-yl)oxy)-N,N,N-trimethyl-2-oxoethan-1-ammonium chloride]	175 to 177		
COC(=O)C1(C)CCC2C(CCC3CC(OS(=O)(=O)O)CCC32C)C1C (as salt: salt) [Compound 22, Pyridinium (2R,4aS,7S,8S,10aR)-7-(methoxycarbonyl)-4a,7,8-trimethyltetra-decahydrophenanthren-2-yl 2-sulfate]	145 to 147		
C[C@@H]1CC[C@H]2[C@@H](CC[C@@H]3C[C@H](OS(=O)(=O)O)CC[C@@]32C)C1 (as salt: salt) [Compound 35, Pyridinium (2R,4aS,4bS,7R,8aS,10aR)-4a,7-dimethyltetradecahydrophenanthren-2-yl 2-sulfate]	147 to 149		
C[C@]12CC[C@@H](OS(=O)(=O)O)C[C@H]1CC[C@@H]1[C@@H]2CC[C@]2(C)[C@@H](I)CC[C@@H]12 (as salt: salt) [Compound 93, Pyridinium (3R,5R,8R,9S,10S,13S,14S,17S)-17-iodo-10,13-dimethylhexadecahydro-1H-cyclopenta[a]phenanthren-3-yl 3-sulfate]	118 to 120		
C/C=C1/CC[C@H]2[C@@H]3CC[C@@H]4C[C@H](NC(=O)CC(=O)O)CC[C@]4(C)[C@H]3CC[C@]12C [Compound 155, 3-(((3R,5R,8R,9S,10S,13S,14S,Z)-17-Ethylidene-10,13-dimethylhexadecahydro-1H-cyclopenta[a]phenanthren-3-yl)amino)-3-oxopropanoic acid]			IC50 [1]: 8.7 µM; inhibition at 10 µM ([1]; HEK293, read-out: Mean % change ± SD): 54.4 ± 5%
C[C@]12N[C@H](Cc3ccccc31)c1ccccc12 [dizocilpine, reference compound]			overall pathway in open field ([2]; vs CDX control group): significant increases; overall pathway in open field ([2]; vs intact animals (p=0.0653)): tendency to increasement; time course of locomotor activity ([2]; dizocilpine 0.3 mg/kg, ten-minute sections): gradual increase; total locomotor activity ([2]; dizocilpine 0.3 mg/kg, vs two control groups): significantly higher
Pyridinium (2S,4aR,4bR,8aS,10aS)-4a-methyltetradecahydrophenanthren-2-yl 2-sulfate [Compound 128]		36.3	Mean % change ± SD ([1]; steroid concentration 50 μmol·l^−1): 58.0 ± 2.0%
Pyridinium (3R,5R,8R,9R,10S,13S,14S)-13-methylhexadecahydro-1H-cyclopenta[a]phenanthren-3-yl 3-sulfate [Compound 126]		5.4	Mean % change ± SD [1, 4]: 68.3 ± 7.4%
Pyridinium (3R,5R,8R,9S,10S,13R,14S,17R)-17-((R)-sec-butyl)-10,13-dimethylhexadecahydro-1H-cyclopenta[a]phenanthren-3-yl 3-sulfate [Compound 123]		11.7	Mean % change ± SD [1, 4]: 46.2 ± 2.3%
Pyridinium (3R,5R,8R,9S,10S,13R,14S,17R)-17-isopropyl-10,13-dimethylhexadecahydro-1H-cyclopenta[a]phenanthren-3-yl 3-sulfate [Compound 122]		2	Mean % change ± SD [1, 5]: 59.6 ± 18.8%
Pyridinium (3R,5R,8R,9S,10S,13S,14S)-10,13-dimethyl-17-methylenehexadecahydro-1H-cyclopenta[a]phenanthren-3-yl 3-sulfate [Compound 116]		1.4	Mean % change ± SD [1, 5]: 68.3 ± 4.3%
Pyridinium (3R,5R,8R,9S,10S,13S,14S,17R)-10,13-dimethyl-17-(prop-1-en-2-yl)hexadecahydro-1H-cyclopenta[a]phenanthren-3-yl 3-sulfate [Compound 121]		0.4	Mean % change ± SD ([1]; steroid concentration 1 μmol·l^−1): 71.7 ± 8.0%
Pyridinium (3R,5R,8S,9S,10S,13R,14R,17S)-10,17-dimethylhexadecahydro-1H-cyclopenta[a]phenanthren-3-yl 3-sulfate [Compound 119]		0.7	Mean % change ± SD [1, 5]: 81.1 ± 2.1%
Pyridinium (3R,5R,8S,9S,10S,13R,14S,17S)-10,13,17-trimethylhexadecahydro-1H-cyclopenta[a]phenanthren-3-yl 3-sulfate [Compound 117]		1.1	Mean % change ± SD [1, 5]: 73.1 ± 6.7%
Pyridinium (3R,5R,8S,9S,10S,13R,14S,17S)-17-ethyl-10,13-dimethylhexadecahydro-1H-cyclopenta[a]phenanthren-3-yl 3-sulfate [Compound 120]		0.5	
Pyridinium (3R,5R,8S,9S,10S,13S,14R,17R)-10,17-dimethylhexadecahydro-1H-cyclopenta[a]phenanthren-3-yl 3-sulfate [Compound 118]		1.5	Mean % change ± SD [1, 5]: 68.0 ± 7.8%
